Columns and labels:
[1] = Visual observation of color tone of isolated pigments; format: physicochemical
Description: The freeze-dried product, the blue pigment (1), the red pigment (2) and the blue pigment (3) obtained in the manner described above were visually observed for color tone.
The blue pigment (1), the red pigment (2) and the blue pigment (3) were visually observed for color tone.

[2] = Visible to ultraviolet absorption spectrum by HPLC with photodiode array detector; format: physicochemical; conditions: for λmax (absorption maximum): in 30% acetonitrile and 0.5% TFA, spectra 650 nm to 250 nm; for color compared with the compound of formula (II) of Patent Document 3: judged from the longer wavelength of the absorption maximum
Method: The blue pigment (1), the red pigment (2) and the blue pigment (3) were analyzed by HPLC, and their absorption spectra at 650 nm to 250 nm in 30% acetonitrile and 0.5% TFA were measured with a photodiode array detector (see FIGS. 3, 5 and 7).
HPLC was carried out by using a Shodex Asahipak ODP50 column (Showa Denko, 4.6 mm in diameter×25 cm) for the column and isocratic elution of a mobile phase consisting of 30% acetonitrile and 0.5% TFA at a flow rate of 0.6 ml/min. Detection was carried out by measuring the absorption spectra at 650 nm to 250 nm with a photodiode array detector (SPDM10Avp, Shimadzu) and monitoring the chromatogram at A560 nm.

[3] = freeze-dried product from Lavande variety transfected with plasmid pSPB919 (Example 1)
[4] = pigments from variety WKS82 transfected with plasmid pSPB130 (Example 3)

Compound | color tone, visually observed [1, 3] | color tone, visually observed [1, 4] | λmax (absorption maximum) [2] [nm] | color compared with the compound of formula (II) of Patent Document 3 [2]
O=c1oc2c(-c3cc(O)c(O)c(O)c3)[o+]c3cc(O)cc4c3c2c2c(c(O)c(O)cc12)O4 [red pigment (2)] | deep red | deep red | 535 | –
O=C(OC1C(OC(=O)c2cc(O)c(O)c(O)c2)[C@@H]2OC(=O)c3cc(O)c(O)c(O)c3-c3c(cc(Oc4c(-c5cc(O)c(O)c(O)c5)[o+]c5cc(O)cc6c5c4-c4ccc(O)c(O)c4O6)c(O)c3O)C(=O)OCC2O[C@H]1OC(=O)c1cc(O)c(O)c(O)c1)c1cc(O)c(O)c(O)c1 (some centres unmarked) [blue pigment (3)] | deep blue | deep blue | 594 | deeper blue color
O=C(OC1C(O)OC2COC(=O)c3cc(Oc4c(-c5cc(O)c(O)c(O)c5)[o+]c5cc(O)cc6c5c4-c4c(C(=O)O)cc(O)c(O)c4O6)c(O)c(O)c3-c3c(cc(O)c(O)c3O)C(=O)O[C@H]2C1OC(=O)c1cc(O)c(O)c(O)c1)c1cc(O)c(O)c(O)c1 (some centres unmarked) [blue pigment (1)] | deep blue | deep blue | 593 | deeper blue color

Source: patent publication US9057076B2, “Compounds purified from blue roses” (SUNTORY HOLDINGS LIMITED, priority 2009, dated 2015)
